Publication PMC7503933, “Benzyl Furanones and Pyrones from the Marine-Derived Fungus Aspergillus terreus Induced by Chemical Epigenetic Modification” (Molecules, 2020)

Molecular target: T1, PTP1B (Homo sapiens, UniProt P18031)
T1 construct: gene PTPN1; human recombinant (Abcam ab51277)
T1 sequence (P18031 1-435): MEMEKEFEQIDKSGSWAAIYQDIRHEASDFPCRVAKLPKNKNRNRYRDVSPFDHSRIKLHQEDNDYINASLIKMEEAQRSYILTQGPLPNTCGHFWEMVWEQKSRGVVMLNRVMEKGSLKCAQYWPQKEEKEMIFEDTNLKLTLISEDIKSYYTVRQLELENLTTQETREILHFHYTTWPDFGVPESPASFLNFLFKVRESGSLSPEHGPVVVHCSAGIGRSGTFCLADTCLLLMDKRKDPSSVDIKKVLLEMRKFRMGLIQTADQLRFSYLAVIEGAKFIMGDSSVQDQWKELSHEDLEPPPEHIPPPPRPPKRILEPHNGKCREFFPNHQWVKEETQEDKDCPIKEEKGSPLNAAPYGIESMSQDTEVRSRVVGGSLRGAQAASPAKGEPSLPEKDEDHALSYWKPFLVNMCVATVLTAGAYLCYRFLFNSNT
Assay: recombinant PTP1B pNPP hydrolysis assay, absorbance […] nm
Assay type: biochemical

| IC50 [µM] | Compound |
| --- | --- |
| 17.3 | COc1cc(O)cc(C)c1C[C@@]1(C(N)=O)OC(C)=CC1=O |
| 45.8 | COc1cc(O)cc(C)c1CC1(C(N)=O)OC(C)=CC1=O (racemic) [(±)-1, Asperfuranone (1)] |
| 35.5 | COc1cc(O)cc(C)c1C[C@]1(C(N)=O)OC(C)=CC1=O [(−)-1, (−)-asperfuranone] |
| 42.3 | COc1cc(O)cc(C)c1Cc1c(O)cc(C)oc1=O [compound 2, asperpyranone A] |
